Measured values from US8470889B2 (TRT Pharma Inc., priority 2008, dated 2013).
Residue numbers refer to the chain shown, from its start. Where two headings read alike, the source gives them in different places.

Legend:
wild-type human AR = molecular target: T1, wild-type human AR (Homo sapiens, UniProt P10275); assay: Luciferase assay for AR transactivation, wild-type AR, PC-3 cells; assay type: cell-based; set-up: Antiandrogenic activity evaluated by luciferase assay in PC-3 cells WT: key to the marks not given beside the values; conditions: 0.1 nM DHT; for Antiandrogenic activity evaluated by luciferase assay in PC-3 cells WT: test compound 1 μM; for suppression of DHT-induced transactivation of wild-type AR: test compound 0.1-1 μM, PC-3 cells
T1 construct: utilizing plasmid expressing a full length of AR; expressed in transfected cells; host or cells: PC-3 cells, plasmid pCMV-AR-wt
T1 sequence (P10275 1-920): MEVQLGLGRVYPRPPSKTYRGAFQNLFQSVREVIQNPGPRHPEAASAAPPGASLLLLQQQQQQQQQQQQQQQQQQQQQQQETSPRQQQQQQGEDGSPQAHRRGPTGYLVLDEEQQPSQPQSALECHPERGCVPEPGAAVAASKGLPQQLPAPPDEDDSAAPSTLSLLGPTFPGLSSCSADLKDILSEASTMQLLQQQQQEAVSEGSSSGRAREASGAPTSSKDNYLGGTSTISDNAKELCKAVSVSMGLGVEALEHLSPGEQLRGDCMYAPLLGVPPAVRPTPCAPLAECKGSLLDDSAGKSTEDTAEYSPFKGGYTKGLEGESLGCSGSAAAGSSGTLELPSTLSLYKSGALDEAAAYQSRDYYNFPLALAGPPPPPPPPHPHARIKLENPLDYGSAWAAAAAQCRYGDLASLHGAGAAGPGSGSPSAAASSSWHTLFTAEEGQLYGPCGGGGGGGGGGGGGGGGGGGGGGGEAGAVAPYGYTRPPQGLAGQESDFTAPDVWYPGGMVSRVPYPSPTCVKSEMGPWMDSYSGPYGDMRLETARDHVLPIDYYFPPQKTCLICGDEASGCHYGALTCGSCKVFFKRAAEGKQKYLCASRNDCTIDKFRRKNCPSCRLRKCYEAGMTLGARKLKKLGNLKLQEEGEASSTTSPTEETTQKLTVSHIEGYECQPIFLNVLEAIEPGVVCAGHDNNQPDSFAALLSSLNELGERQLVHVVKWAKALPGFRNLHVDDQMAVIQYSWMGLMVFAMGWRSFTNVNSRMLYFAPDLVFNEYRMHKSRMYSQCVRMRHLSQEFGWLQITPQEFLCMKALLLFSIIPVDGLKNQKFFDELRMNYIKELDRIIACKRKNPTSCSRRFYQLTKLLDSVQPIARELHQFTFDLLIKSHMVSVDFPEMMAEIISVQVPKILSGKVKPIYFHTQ
Experimental: (§1) PC-3 cells were transiently transfected with pCMV-MMTV-Luc, Renilla null luciferase and AR expressing plasmids. The cells were treated with 0.1 nM DHT with and without test compound for 24 hr. Relative luciferase activity was determined by dual luciferase assay kit (Promega), standardized to Renilla luciferase control and normalized to 0.1 nM DHT without test compound (100%).
(§2) After 16 h, the cells were treated with 0.1 nM of DHT and test compounds at the designated concentration. After further 24 h, the cells were lysed in 100 μL/well passive lysis buffer, and 20 μL of the cell lysates was used for detection of the luciferase activity using Dual Luciferase Assay System (Promega). All experiments were run in triplicate. Relative luciferase activity is determined as the ratio of inducible firefly luciferase luminescence divided by the luminescence of the renilla luciferase control normalized to 0.1 nM DHT without test compounds.
(§3) The potency of antagonistic activity: ++>+.
PC-3 cells were transiently transfected with plasmid expressing wild type human AR and MMTV-Luc. […] RLU, relative luciferase units, were normalized to that of 0.1 nM DHT alone.

H874Y mutated AR = molecular target: T2, H874Y mutated AR (Homo sapiens, UniProt P10275, H875Y); assay: Luciferase assay for AR transactivation, H874Y AR, PC-3 cells; assay type: cell-based; conditions: 0.1 nM DHT; for suppression of DHT-induced transactivation of H874Y AR: test compound 0.1-1 μM, PC-3 cells; for Antiandrogenic activity evaluated by luciferase assay in PC-3 cells H874Y: test compound 1 μM
T2 sequence (P10275 1-920 H875Y): T1 sequence (P10275 1-920) with H875Y
Experimental: as §1, §2, §3

LNCaP cells = assay: MTT cell growth inhibition, LNCaP;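 also: MTT formazan absorbance at 600 nm read after 72 h of compound exposure, IC50 fitted by nonlinear regression of dose-response curves, samples run in triplicate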
[1] = read-out: Cellular IC50 (μM) LNCaP, Table 9

Row | suppression of DHT-induced transactivation of H874Y AR (H874Y mutated AR) | suppression of DHT-induced transactivation of wild-type AR (wild-type human AR) | IC50 (LNCaP cells; read-out: IC50 in LNCaP cells) [µM] | Compound | Antiandrogenic activity evaluated by luciferase assay in PC-3 cells WT (wild-type human AR) | Antiandrogenic activity evaluated by luciferase assay in PC-3 cells H874Y (H874Y mutated AR) | IC50 (LNCaP cells; [1]) [µM]
1 | effective | effective | – | CC1(C)CCC(O)C=C1/C=C/C(=O)/C=C/c1cnc2ccccc2c1 (stereo not drawn) [Compound B95] | ++ | ++ | 0.63
2 | dose-dependent activity | modest antiandrogenic activity | 0.74 | CC1=C(/C=C/C(=O)/C=C/c2cccc(C(F)(F)F)c2)C(C)(C)CCC1O (racemic) [Compound B25] | – | – | –

Row | Compound | suppression of DHT-induced transactivation of H874Y AR (H874Y mutated AR) | suppression of DHT-induced transactivation of wild-type AR (wild-type human AR) | IC50 (LNCaP cells; read-out: IC50 in LNCaP cells) [µM] | Antiandrogenic activity evaluated by luciferase assay in PC-3 cells WT (wild-type human AR) | Antiandrogenic activity evaluated by luciferase assay in PC-3 cells H874Y (H874Y mutated AR) | IC50 (LNCaP cells; [1]) [µM]
3 | CC1(C)CCC(O)C=C1/C=C/C(=O)/C=C/c1csc2ccccc12 (stereo not drawn) [Compound B92] | pure antagonists | – | – | ++ | + | 1.1
